Laboratory results taken from US10961278B2, “Vancomycin derivative, preparation method, pharmaceutical composition and use thereof” (SHANGHAI INSTITUTE OF MATERIA MEDICA, CHINESE ACADEMY OF …, priority 2016, dated 2021).
Values after ≈ are worked out from the molar mass of the structure shown. Like-named read-outs stand apart in the source and are kept apart here.

How the values were obtained:
[1] = system: vancomycin-sensitive Staphylococcus aureus Newman strain; assay: In vitro antibacterial activity assay (MIC, CLSI dilution method); type: cell-based; conditions: Staphylococcus aureus, 16 h, S. aureus Newman, 37° C.
[2] = system: vancomycin-middle resistant Staphylococcus aureus Mu50 strain; assay: as above; type: cell-based
[3] = Staphylococcus aureus, 16 h, S. aureus Mu50, 37° C., read-out: MIC Mu50
[4] = Staphylococcus aureus; S. aureus Mu50, 37° C., 16 h; read-out: MIC Mu50
[5] = Staphylococcus aureus, 16 h, read-out: MIC Mu50

Row | Structure (SMILES) | MIC ([1]; NEWMAN) | MIC [2, 3] | MIC [1] | MIC [2, 4] | MIC [2, 5]
1 | CN[C@H](CC(C)C)C(=O)N[C@H]1C(=O)N[C@@H](CC(N)=O)C(=O)N[C@H]2C(=O)N[C@H]3C(=O)N[C@H](C(=O)N[C@H](C(=O)O)c4cc(O)c(CNCCCNC(=O)[C@H](O)[C@@H](O)[C@H](O)[C@H](O)CO)c(O)c4-c4cc3ccc4O)[C@H](O)c3ccc(c(Cl)c3)Oc3cc2cc(c3OC2O[C@H](CO)C(O)C(O)[C@H]2O[C@@H]2CC(C)[C@@H](O)C(C)(NCc3ccc(OCc4cccc(-c5ccccc5)c4C)c(Cl)c3)C2)Oc2ccc(cc2Cl)[C@H]1O (stereo partly shown) [Van017] | 0.5 µg/mL (≈ 0.246 µM) | 1 µg/mL (≈ 0.492 µM) |  |  | 
2 | CN[C@H](CC(C)C)C(=O)N[C@H]1C(=O)N[C@@H](CC(N)=O)C(=O)N[C@H]2C(=O)N[C@@H]3C(=O)N[C@H](C(=O)N[C@H](C(=O)O)c4cc(O)c(CNC5C(O)OC(CO)[C@H](O)[C@@H]5O)c(O)c4-c4cc3ccc4O)[C@H](O)c3ccc(c(Cl)c3)Oc3cc2cc(c3O[C@@H]2O[C@H](CO)C(O)C(O)[C@H]2O[C@H]2CC(C)(NCc3ccc(C#C[Si](C)(C)C)cc3)[C@H](O)[C@H](C)O2)Oc2ccc(cc2Cl)[C@H]1O (stereo partly shown) [Van033] |  |  | 0.5 µg/mL (≈ 0.274 µM) | 2 µg/mL (≈ 1.09 µM) | 
3 | CN[C@H](CC(C)C)C(=O)N[C@H]1C(=O)N[C@@H](CC(N)=O)C(=O)N[C@H]2C(=O)N[C@H]3C(=O)N[C@H](C(=O)N[C@H](C(=O)O)c4cc(O)c(CNCCO[C@H]5OC(CO)[C@@H](O)C(O)C5O)c(O)c4-c4cc3ccc4O)[C@H](O)c3ccc(c(Cl)c3)Oc3cc2cc(c3OC2O[C@H](CO)C(O)C(O)[C@H]2O[C@@H]2CC(C)[C@@H](O)C(C)(NCc3ccc(-c4ccc(Cl)cc4)cc3)C2)Oc2ccc(cc2Cl)[C@H]1O (stereo partly shown) [Van013] |  |  | 2 µg/mL (≈ 1.06 µM) |  | 4 µg/mL (≈ 2.12 µM)
4 | CN[C@H](CC(C)C)C(=O)N[C@H]1C(=O)N[C@@H](CC(N)=O)C(=O)N[C@H]2C(=O)N[C@H]3C(=O)N[C@H](C(=O)N[C@H](C(=O)O)c4cc(O)c(CNCCO[C@@H]5OC(CO)[C@H](O)C(O)C5O)c(O)c4-c4cc3ccc4O)[C@H](O)c3ccc(c(Cl)c3)Oc3cc2cc(c3OC2O[C@H](CO)C(O)C(O)[C@H]2O[C@@H]2CC(C)[C@@H](O)C(C)(NCc3ccc(-c4ccc(Cl)cc4)cc3)C2)Oc2ccc(cc2Cl)[C@H]1O (stereo partly shown) [Van011] | ≤ 0.0625 µg/mL | 1 µg/mL (≈ 0.531 µM) |  |  | 
5 | C#Cc1ccc(CNC2(C)C[C@H](O[C@@H]3C(O)C(O)[C@@H](CO)O[C@H]3Oc3c4cc5cc3Oc3ccc(cc3Cl)[C@@H](O)[C@@H](NC(=O)[C@@H](CC(C)C)NC)C(=O)N[C@@H](CC(N)=O)C(=O)N[C@H]5C(=O)N[C@@H]3C(=O)N[C@H](C(=O)N[C@H](C(=O)O)c5cc(O)c(CNC6C(O)OC(CO)[C@H](O)[C@@H]6O)c(O)c5-c5cc3ccc5O)[C@H](O)c3ccc(c(Cl)c3)O4)O[C@@H](C)[C@H]2O)cc1 (stereo partly shown) [Van035] |  |  | 2 µg/mL (≈ 1.14 µM) |  | 8 µg/mL (≈ 4.56 µM)
6 | CN[C@H](CC(C)C)C(=O)N[C@H]1C(=O)N[C@@H](CC(N)=O)C(=O)N[C@H]2C(=O)N[C@@H]3C(=O)N[C@H](C(=O)N[C@H](C(=O)O)c4cc(O)c(CNCCCNC(=O)[C@H](O)[C@@H](O)[C@H](O[C@@H]5OC(CO)[C@H](O)C(O)[C@@H]5O)[C@H](O)CO)c(O)c4-c4cc3ccc4O)[C@H](O)c3ccc(c(Cl)c3)Oc3cc2cc(c3OC2O[C@H](CO)C(O)C(O)[C@H]2O[C@H]2CC(C)(NCc3ccc(-c4ccc(Cl)cc4)cc3)[C@H](O)C(C)O2)Oc2ccc(cc2Cl)[C@H]1O (stereo partly shown) [Van015] |  |  | 0.25 µg/mL (≈ 0.12 µM) |  | 0.5 µg/mL (≈ 0.241 µM)
7 | CN[C@H](CC(C)C)C(=O)N[C@H]1C(=O)N[C@@H](CC(N)=O)C(=O)N[C@H]2C(=O)N[C@H]3C(=O)N[C@H](C(=O)N[C@H](C(=O)O)c4cc(O)c(CNCCCNC(=O)[C@H](O)[C@@H](O)[C@H](O)[C@H](O)CO)c(O)c4-c4cc3ccc4O)[C@H](O)c3ccc(c(Cl)c3)Oc3cc2cc(c3OC2O[C@H](CO)C(O)C(O)[C@H]2O[C@@H]2CC(C)[C@@H](O)C(C)(NCc3ccc(C#C[Si](C)(C)C)cc3)C2)Oc2ccc(cc2Cl)[C@H]1O (stereo partly shown) [Van028] |  |  | 1 µg/mL (≈ 0.527 µM) | 2 µg/mL (≈ 1.05 µM) | 
8 | CN[C@H](CC(C)C)C(=O)N[C@H]1C(=O)N[C@@H](CC(N)=O)C(=O)N[C@H]2C(=O)N[C@@H]3C(=O)N[C@H](C(=O)NC(C(=O)NCCCN(C)C)c4cc(O)cc(O)c4-c4cc3ccc4O)[C@H](O)c3ccc(c(Cl)c3)Oc3cc2cc(c3OC2O[C@H](CO)C(O)C(O)[C@H]2O[C@H]2CC(C)(NCc3ccc(-c4ccc(Cl)cc4)cc3)[C@H](O)C(C)O2)Oc2ccc(cc2Cl)[C@H]1O (stereo partly shown) [Van020] |  |  | 1 µg/mL (≈ 0.577 µM) |  | 1 µg/mL (≈ 0.577 µM)

The next lines start with results.

Row | MIC ([1]; NEWMAN) | MIC [2, 3] | Structure (SMILES) | MIC [1] | MIC [2, 4] | MIC [2, 5]
9 | 1 µg/mL (≈ 0.5 µM) | 2 µg/mL (≈ 1 µM) | CN[C@H](CC(C)C)C(=O)N[C@H]1C(=O)N[C@@H](CC(N)=O)C(=O)N[C@H]2C(=O)N[C@H]3C(=O)N[C@H](C(=O)NC(C(=O)NCCCN(C)C)c4cc(O)c(CNCCCNC(=O)[C@H](O)[C@@H](O)[C@H](O)[C@H](O)CO)c(O)c4-c4cc3ccc4O)[C@H](O)c3ccc(c(Cl)c3)Oc3cc2cc(c3OC2O[C@H](CO)C(O)C(O)[C@H]2O[C@H]2CC(C)(NCc3ccc(-c4ccc(Cl)cc4)cc3)[C@H](O)C(C)O2)Oc2ccc(cc2Cl)[C@H]1O (stereo partly shown) [Van022] |  |  | 
10 | ≤ 0.0625 µg/mL | 0.25 µg/mL (≈ 0.137 µM) | CCCCCCCCCCNCCNC1(C)C[C@H](O[C@@H]2C(O)C(O)[C@@H](CO)O[C@H]2Oc2c3cc4cc2Oc2ccc(cc2Cl)[C@@H](O)[C@@H](NC(=O)[C@@H](CC(C)C)NC)C(=O)N[C@@H](CC(N)=O)C(=O)N[C@H]4C(=O)N[C@@H]2C(=O)N[C@H](C(=O)N[C@H](C(=O)O)c4cc(O)c(CNC5C(O)OC(CO)[C@H](O)[C@@H]5O)c(O)c4-c4cc2ccc4O)[C@H](O)c2ccc(c(Cl)c2)O3)O[C@@H](C)[C@H]1O (stereo partly shown) [Van008] |  |  | 
11 | 0.25 µg/mL (≈ 0.121 µM) | 1 µg/mL (≈ 0.486 µM) | CCCCCCCCCCNCCNC1(C)C[C@H](O[C@H]2C(Oc3c4cc5cc3Oc3ccc(cc3Cl)[C@@H](O)[C@@H](NC(=O)[C@@H](CC(C)C)NC)C(=O)N[C@@H](CC(N)=O)C(=O)N[C@H]5C(=O)N[C@H]3C(=O)N[C@H](C(=O)N[C@H](C(=O)O)c5cc(O)c(CNCCCNC(=O)[C@H](O)[C@@H](O)[C@H](O[C@@H]6OC(CO)[C@H](O)C(O)C6O)[C@H](O)CO)c(O)c5-c5cc3ccc5O)[C@H](O)c3ccc(c(Cl)c3)O4)O[C@H](CO)C(O)C2O)OC(C)[C@H]1O (stereo partly shown) [Van010] |  |  | 
12 | 0.125 µg/mL (≈ 0.0675 µM) | 0.5 µg/mL (≈ 0.27 µM) | CCCCCCCCCCNC1(C)C[C@H](O[C@H]2C(Oc3c4cc5cc3Oc3ccc(cc3Cl)[C@@H](O)[C@@H](NC(=O)[C@@H](CC(C)C)NC)C(=O)N[C@@H](CC(N)=O)C(=O)N[C@H]5C(=O)N[C@H]3C(=O)N[C@H](C(=O)N[C@H](C(=O)O)c5cc(O)c(CNCCCNC(=O)[C@H](O)[C@@H](O)[C@H](O)[C@H](O)CO)c(O)c5-c5cc3ccc5O)[C@H](O)c3ccc(c(Cl)c3)O4)O[C@H](CO)C(O)C2O)CC(C)[C@H]1O (stereo partly shown) [Van024] |  |  | 
13 | 1 µg/mL (≈ 0.535 µM) | 2 µg/mL (≈ 1.07 µM) | CCCCCCCCCCNCCNC1(C)C[C@H](O[C@H]2C(Oc3c4cc5cc3Oc3ccc(cc3Cl)[C@@H](O)[C@@H](NC(=O)[C@@H](CC(C)C)NC)C(=O)N[C@@H](CC(N)=O)C(=O)N[C@H]5C(=O)N[C@H]3C(=O)N[C@H](C(=O)N[C@H](C(=O)O)c5cc(O)c(CNCCOC6OC(CO)[C@@H](O)C(O)C6O)c(O)c5-c5cc3ccc5O)[C@H](O)c3ccc(c(Cl)c3)O4)O[C@H](CO)C(O)C2O)OC(C)[C@H]1O (stereo partly shown) [Van001] |  |  | 
14 | 2 µg/mL (≈ 1.02 µM) | 4 µg/mL (≈ 2.03 µM) | CN[C@H](CC(C)C)C(=O)N[C@H]1C(=O)N[C@@H](CC(N)=O)C(=O)N[C@H]2C(=O)N[C@H]3C(=O)N[C@H](C(=O)N[C@H](C(=O)NCCCN(C)C)c4cc(O)c(CNCCOC5OC(CO)[C@@H](O)C(O)C5O)c(O)c4-c4cc3ccc4O)[C@H](O)c3ccc(c(Cl)c3)Oc3cc2cc(c3OC2O[C@H](CO)C(O)C(O)[C@H]2O[C@H]2CC(C)(NCc3ccc(-c4ccc(Cl)cc4)cc3)[C@H](O)C(C)O2)Oc2ccc(cc2Cl)[C@H]1O (stereo partly shown) [Van021] |  |  | 
